Legend:
[1] = system: DSS-induced IBD model animals; assay: Actions of improving the clinical conditions in DSS-induced IBD model; format: in vivo, mice; settings: for Change in length of the large intestine (Ratio to the no treatment group, %): C57BL/6N mice, 3% DSS Day 0-4, drug Day 4-10, determined Day 11, control 73.4
Procedure: This test was performed according to the method described in PEDIATRIC RESEARCH, Vol. 53, No. 1, 143 to 147, 2003. In particular, mice (6-week-old, C57BL/6N Jcl, CLEA Japan, Inc.) were divided into groups of eight mice each such that average body weight was the same in each group on Day 0. […] Determination was made on the next day of the last administration of each drug (Day 11). As the evaluation index, the length of the large intestine and the rate of body weight change from the first day of the test (Day 0) to the last day of the test (Day 11) were measured.

[2] = system: intestinal epithelial cells; assay: Inhibition of apoptosis of large intestinal epithelial cells in TNBS-induced colitis; format: in vivo, mouse; settings: TNBS-induced colitis large intestine, Giemsa staining, 1000 cells per segment; TNBS alone 40.0±3.0%
Procedure: Large intestine affected by TNBS-induced colitis was subjected to Giemsa staining to stain the nucleus, and apoptosis of the intestinal epithelial cells was investigated (FIG. 3). Cells showing cell shrinkage or nucleus fragmentation were taken as apoptoic cells. 1000 cells in each segment were observed under the microscope, and the ratio of apoptotic cells (the apoptosis induction rate) was calculated (FIG. 4).

[3] = system: SD rats; settings: 2000 mg/kg single oral dose in 0.5% HPMC, five male and five female SD rats
Procedure: 2000 mg/kg of Compound (1) was suspended in 0.5% HPMC solution, and orally administered at a single dose of 10 mL/kg to five male and five female SD rats (6-week-old).

[4] = Compound 100, prednisolone 5, 5-ASA 100 mg/kg/day

Compound	Change in length of the large intestine (Ratio to the no treatment group, %) [1, 4]	weight loss (rate of body weight change from first day to determination day) ([1]; Day 0 to Day 11, printed as loss, prednisolone 5, 5-ASA 100 mg/kg/day, control loss 1.7±1.8)	Rate of body weight change (%, Mean ± SE) ([1]; Day 0 to Day 11, Compound 100, prednisolone 5, 5-ASA 100 mg/kg/day, control −1.7 ± 1.8, no treatment 3.7 ± 1.5)	ratio of apoptotic cells (apoptosis induction rate) [2]	death [3]
Nc1ccc(O)c(C(=O)O)c1 [Compound 5-ASA, 5-aminosalycilic acid]	80.3%	5.0±0.3%	−5.0 ± 0.3%		
N=C1CCCN1Cc1[nH]c(=O)[nH]c(=O)c1Cl [Compound (I), 5-chloro-6-(2-iminopyrrolidin-1-yl)methyl-2,4(1H,3H)-pyrimidinedione]	88.6%			26.0±5.0%	
Cl.N=C1CCCN1Cc1[nH]c(=O)[nH]c(=O)c1Cl [Compound (1), 5-chloro-6-(2-iminopyrrolidin-1-yl)methyl-2,4(1H,3H)-pyrimidinedione hydrochloride]	88.6%				no case of death
C[C@]12C=CC(=O)C=C1CC[C@@H]1[C@@H]2[C@@H](O)C[C@@]2(C)[C@H]1CC[C@]2(O)C(=O)CO [Prednisolone, prednisolone]	93.2%				

From US20090209565A1, “THERAPEUTIC AGENT FOR INFLAMMATORY BOWEL DISEASE” (priority 2006, published 2009)
